Measured values as given in US9085523B2, “Compound for treating cartilage disorders” (ONO PHARMACEUTICAL CO., LTD., priority 2011, dated 2015).
One block for each molecule: values may come before it.

Assays:
[1] = system: blood pressure and heart rate of normal rabbit; assay: Measurement of blood pressure and heart rate of normal rabbit; assay type: in vivo; conditions: for effect on circulatory system: at the dose exhibiting efficacy on the knee cartilage defect model, comparison of blood concentrations of Compound A
Procedure: Compound A acts on circulatory system and affects on blood pressure and heart rate.
Blood pressure and heart rate were measured by the following method using female Japanese white domestic rabbit. An animal was retained in dorsal position on an operation table on a measurement day. After the hair of right femur area was removed, a local anesthetic was given by administering an appropriate amount of lidocaine injection. The skin and muscle was incised to expose femur artery and vein, and a catheter (manufactured by Atom Medical Corporation) filled with saline containing heparin (about 10 units/mL) beforehand was placed in the right femur artery.
After retaining the rabbit in a rabbit blood sampling box (manufactured by NATSUME SEISAKUSHO CO LTD.), the catheter was connected to a pressure transducer (DX-100: manufactured by NIHON KOHDEN CORPORATION) to measure blood pressure with a strain pressure amplifier (AP-641G: manufactured by NIHON KOHDEN CORPORATION) and heart rate with an instantaneous heart rate counter (AT-601G: manufactured by NIHON KOHDEN CORPORATION). Blood pressure and waveform of heartbeat were recorded by a recorder (WR3701: manufactured by Graphtech Corporation). Measurement was conducted under awake condition after confirming blood pressure and heart rate became stable.
(§1) Compound A was administered cumulatively through right auricular vein with a syringe pump (manufactured by TERUMO CORPORATION) at 0 (medium: saline), 100, 300 and 1000 ng/kg/min (administration volume: 1 mL/kg/h). Each dose was administered for more than 60 minutes and blood was collected from left auricular vein 60 minutes after the administration started. Blood was collected with a 1 mL syringe with a needle of […] treated with heparin (about 10 units/mL) beforehand. The collected blood was centrifuged at 4° C. 13,500 g for 5 minutes and the obtained supernatant (plasma) was stored at […] to be provided for the measurement of blood concentration of Compound A.
Increase or decrease ratio of mean blood pressure and heart rate at 5, 10, 15, 20, 30, 40, 50 and 60 minutes after the administration started were calculated based on the values of pre-administration of each subject. Maximum change of blood pressure and heart rate between before and after the administration of Test Compounds was evaluated.

[2] = system: knee cartilage defect model; assay: Evaluation of cartilage tissue score in knee cartilage defect model; assay type: in vivo; conditions: rabbit, intra-articular, bi-weekly, 6 times; vs vehicle, Steel test
Procedure: Knee cartilage defect model was prepared by the following method. Female Japanese white domestic rabbit (2.5-3.5 kg) was anesthetized by the administration of sodium pentobarbital (30 mg/kg) through ear vein. The hair around knee articulations of both hind legs was removed and disinfected with iodine tincture. After the incision of the skin of an inert right hind leg, the boundary between patella ligament and articular capsule was incised in dorsal position. Patella was dislocated outward to expose trochlea femoris largely and medial condyle of femur was drilled with a dental drill to prepare small hole (diameter: 4 mm, depth: about 2 mm). The surgical incision was sutured and the surgical site was disinfected with iodine tincture. Femur of a left knee or both knees of pseudo-operation group was only exposed by the same operation without preparing small hole. To avoid infection disease, 100,000 units of benzylpenicilline procaine/125 mg titers of dihydrostreptomycin sulfate/I mg of procaine hydrochloride per rabbit was administered in gluteal muscle. A test compound (12-200 μg/knee, calculated in Compound A which is active form of test compounds) and its medium (5% glucose solution containing 0.05% Tween 80) were administered inside articular cavity of right knee of rabbit at bi-weekly intervals, 6 times for total, and from a week after operation. […]

[3] = In vitro hydrolysis test in rabbit plasma (release of Compound A, LC/MS/MS); assay type: in vitro ADME; conditions: 37° C.
Procedure: The particles were retained inside articular cavity after intra-articular administration. The sustained period of active form inside articular cavity changes depending on hydrolysis period of a test compound. Therefore, the hydrolysis period of a test compound was evaluated and set as an indicator of sustained release of the active form.
Various test compounds were dissolved in dimethylsulfoxide, so that the concentration of the solution calculated in Compound A becomes 0.5 mg/mL. The solution (10 μL) was added to 0.5 mL of rabbit plasma and incubated at 37° C. in water bath. 50 μL of the solution was sampled 0, 1, 3, 8, 24, 30, 48 and 72 minutes after the incubation and the concentration of Compound A in sample was determined.
After 50 μL of the solution was sampled in a polyethylene tube, 10 μL of deuterium-labeled Compound A as internal standard and 2 mL of acetonitrile were added, followed by stirring. After centrifugation, 100 μL of the supernatant was sampled in a polyethylene tube and 900 μL of acetonitrile was added thereto, followed by stirring. After filtration, the supernatant was measured by LC/MS/MS and the 50% hydrolysis time was calculated.

[4] = Particle forming: mean particle diameter (Dv) and particle distribution (PDI) of suspensions by laser diffraction; assay type: physicochemical; conditions: 5% glucose solution containing 0.05% Tween 80
Procedure: In the specification, the mean particle diameter means the mean particle diameter measured by a laser diffraction/scattering method. In the specification, the mean particle diameter is measured by a laser diffraction grain size distribution measuring apparatus (SALD-2100: manufactured by Shimadzu Corp.). In terms of mean particle diameter, various values such as volume mean diameter, surface mean diameter, median diameter and the like are used as an indicator of mean particle diameter, and in the specification, volume mean diameter (Dv) is used as a mean particle diameter.
In addition, a particle to be injected inside articular cavity is preferably a particle with a mean particle diameter with less variance and uniform size. The variance of mean particle diameter can be evaluated by measuring particle size distribution and the particle size distribution can be measured by a laser diffraction grain size distribution measuring apparatus as well as a mean particle diameter. […] In the description, PDI value and Dn was measured by a laser diffraction grain size distribution measuring apparatus (SALD-2100: manufactured by Shimadzu Corp.).
To distilled water, Compound 4-11 dissolved in ethanol was added slowly, 5% glucose solution and 5% glucose solution containing 0.05% Tween 80 with stirring. […] The quantity of each component is as follows, […]

[5] = Blood concentration of Compound A during continuous intravenous administration to normal rabbit; assay type: in vivo; conditions: female, Japanese white, plasma, 60 minutes after administration started
Procedure: as §1

[6] = rabbit, intravenous, 1000 ng/kg/min

Time of 50% hydrolysis [3]: 26.2 days
SMILES: CCCCCCCCCCCCCCCC#CCOC(=O)CCC/C=C\C[C@@H]1[C@@H](/C=C/C[C@H](O)C2(CC)CCC2)[C@H](O)C[C@H]1Cl [Compound 19, 2-octadecyn-1-yl(5Z)-7-{(1R,2R,3R,5R)-5-chloro-2-[(1E,4S)-4-(1-ethylcyclobutyl), 4-hydroxy-1-buten-1-yl]-3-hydroxycyclopentyl}-5-heptenoate]
effect on circulatory system [1]: hardly affects on circulatory system | cartilage tissue score [2]: significantly improved

particle forming in dispersion medium [4]: did not form a particle
SMILES: CCCCCCCCCCCCCCCCCC[N+](C)(C)CCOC(=O)CCC/C=C\C[C@@H]1[C@@H](/C=C/C[C@H](O)C2(CC)CCC2)[C@H](O)C[C@H]1Cl.[Br-] [Reference Example 3, N-(2-{[(5Z)-7-{(1R,2R,3R,5R)-5-chloro-2-[(1E,4S)-4-(1-ethylcyclobutyl)-4-hydroxy-1-buten-1-yl]-3-hydroxycyclopentyl}-5-heptenoyl]oxy}ethyl)-N,N-di methyl-octadecyl ammonium bromide]

concentration at 60 min ([5]; continuous intravenous 100 ng/kg/min): 2 ng/mL | concentration at 60 min ([5]; continuous intravenous 300 ng/kg/min): 5.9 ng/mL | concentration at 60 min ([5]; continuous intravenous 1000 ng/kg/min): 24.3 ng/mL
SMILES: CCC(CCCCl)[C@@H](O)C/C=C/[C@@H]1[C@@H](C/C=C\CCCC(=O)O)[C@H](Cl)C[C@H]1O (stereo partly drawn) [Compound A, (5Z)-7-{(1R,2R,3R,5R)-5-chloro-2-[(1E,4S)-4-(1-ethylchlorobutyl)-4-hydroxy-1-butenyl]-3-hydroxycyclopentyl}-5-heptenoic acid]
blood concentration that does not affect blood pressure ([1]; rabbit): ≤ 5.9 ng/mL | blood concentration that does not affect heart rate ([1]; rabbit): ≤ 2.0 ng/mL | increase of heart rate at maximum ([1]; rabbit, intravenous, 100 ng/kg/min): about 5% | increase of heart rate ([1]; rabbit, intravenous, 300 ng/kg/min): 15% | decrease of blood pressure [1, 6]: 16 mmHg | increase of heart rate [1, 6]: 20% | decrease of blood pressure at maximum ([1]; rabbit, intravenous, 100 and 300 ng/kg/min): ≤ 5 mmHg

Time of 50% hydrolysis [3]: 10.6 days
SMILES: CCCCCCCCCCCCCCCOc1cccc(C(=O)OCCOC(=O)CCC/C=C\C[C@@H]2[C@@H](/C=C/C[C@H](O)C3(CC)CCC3)[C@H](O)C[C@H]2Cl)c1 [Compound 4-1, 2-{[(5Z)-7-{(1R,2R,3R,5R)-5-chloro-2-[(1E,4S)-4-(1-ethylcyclobutyl)-4-hydroxy-1-buten-1-yl]-3-hydroxycyclopentyl}-5-heptenoyl]oxy}ethyl 3-(pentadecyloxy)benzoate]
effect on circulatory system [1]: hardly affects on circulatory system

Time of 50% hydrolysis [3]: 7.3 days
SMILES: CCCCCCCCCCCCCCCOc1ccc(C(=O)OCCOC(=O)CCC/C=C\C[C@@H]2[C@@H](/C=C/C[C@H](O)C3(CC)CCC3)[C@H](O)C[C@H]2Cl)cc1 [Compound 4-11, 2-{[(5Z)-7-{(1R,2R,3R,5R)-5-chloro-2-[(1E,4S)-4-(1-ethylcyclobutyl)-4-hydroxy-1-buten-1-yl]-3-hydroxycyclopentyl}-5-heptenoyl]oxy}ethyl 4-(pentadecyloxy)benzoate]
effect on circulatory system [1]: hardly affects on circulatory system

Time of 50% hydrolysis [3]: 7.8 days
SMILES: CCCCCCCCCCCCCCCCc1ccc(C(=O)OCCCOC(=O)CCC/C=C\C[C@@H]2[C@@H](/C=C/C[C@H](O)C3(CC)CCC3)[C@H](O)C[C@H]2Cl)cc1 [Compound 6-4, 3-{[(5Z)-7-{(1R,2R,3R,5R)-5-chloro-2-[(1E,4S)-4-(1-ethylcyclobutyl)-4-hydroxy-1-buten-1-yl]-3-hydroxycyclopentyl}-5-heptenoyl]oxy}propyl 4-hexadecylbenzoate]
